Where two headings read alike, the source gives them in different places.
Key:
hsDHODH = hsDHODH (Homo sapiens (Human), UniProt Q02127); test: Activity test at enzyme level: DHODH inhibition, DCIP absorbance at 600 nm; format: biochemical
Experimental: Culture and Purification of hsDHODH Protein
The correctly sequenced recombinant plasmid pET-19b-DHODH was transformed into competent E. coli BL21 (DE3), and cultured on LB plate containing ampicillin. Colonies were randomly selected, inoculated into LB medium containing […], and incubate overnight at 37° C., 230 rpm. The cells were inoculated at a ratio of 1:200 in 500 mL of LB medium containing […] and expanded at 37° C., 230 rpm. When the OD value of the cells reached 0.8-1, IPTG was added into the medium to a final concentration of IPDG of 0.5 mM, and expression was induced overnight at 25° C. The induced cells were collected by centrifugation at […], 4° C., washed with deionized water, and centrifuged again to collect the bacterial pellet, which was stored at −80° C.
Purification of protein: cells were re-suspended in lysis liquid containing 50 mM HEPES (pH 8.0), 0.15 M NaCl, 10 mM imidazole, 10% glycerol, 0.1% Triton X-100, and a small amount of soy protease inhibitor added. After re-suspended and mixed homogeneously, cells were ultrasonically disrupted. The disruption solution was centrifuged for 30 min, and the supernatant and precipitate were taken for protein electrophoresis to determine the form of protein. The supernatant was loaded onto a Ni-NTA column, and the pass-through liquid was collected, and then the resin was washed for 3-4 times with a lysis liquid containing 20 mM imidazole, and finally eluted with a lysis liquid containing 300 mM imidazole. After elution, protein solution was collected. 10 μL of the above protein sample was taken for SDS-PAGE electrophoresis to determine the content of target protein. Finally, the eluted protein solution is dialyzed in the dialysis liquid to remove imidazole, thereby obtaining a pure protein.
Method for Testing Activities of Compounds at Enzyme Level
Principles of activity test at enzyme level: firstly, dihydroorotate (DHO) is oxidatively dehydrogenated by DHODH to form orotic acid (Orotate, OA), accompanied by reduction of Flavin mononucleotide (FMN) into reduced flavin mononucleotide (FMNH2) by accepting 2H+ and 2e−, then coenzyme Q (CoQ) as hydrogen acceptor accepting electron and proton from FMNH2 is reduced into reduced coenzyme Q (CoQH2), reduced coenzyme Q transfers electrons to a chromogenic substrate, […] (DCIP), and finally DCIP was reduced. […] The degree to which the substrate DHO is oxidized can be judged based on the degree of decrease in absorbance. The degree of oxidation of the substrate DHO per unit time is the initial rate of the enzymatic reaction. Upon addition of a inhibitor, the initial rate of the enzymatic reaction is reduced.
Substrate DHO was added to start the reaction with a DHO final concentration of 500 μM. The absorbance was read at 600 nm using a BioTek microplate reader and read every 30 s for 6 min. […] For calculating IC50 of a compound, Origin 8.0 was used to test the inhibition rate at least 8 concentrations.

CIA model rats = test: Pharmacodynamic evaluation on rheumatoid arthritis model (type II collagen-induced arthritis, CIA); format: in vivo, Wistar rat; conditions: CIA Wistar rats; for degree of joint swelling: FIG. 2B; for gain of body weight: intraperitoneal injection, FIG. 2A
Experimental: The animal model used in this experiment was a type II collagen-induced arthritis animal model (CIA) established by using Wistar rat. On the 0 and 7th day of the experiment, rats were subcutaneously injected with a mixed solution of Bovine II Collagen (CII) and Incomplete Freund's Adjuvant (IFA) to establish a rat model of arthritis.
In the pharmacodynamic test of Compound 1, Compound 1 and the positive drug, methotrexate were dissolved in a solvent system consisting of dimethyl sulfoxide (DMSO), polyethylene glycol 400 (PEG 400) and physiological saline at a volume ratio of 1:10:9.
During the administration to the rats (day 0 to 27 of the experiment), the body weight of a rat was weighed every three days, and the growth was observed. After the joints of the rat began to swell, the degree of joint swelling was scored every two days.
Because the incidence of inflammation in fore paw is low and the hind paws are more prone to swelling and the degree of swelling is more serious, the sum of the scores of two hind paws is used to evaluate the incidence of arthritis in rats. The maximum sum of score is 8 points.
In this experiment, Wistar rats were used to establish a CIA animal model. Joints were taken on the 28th day for subsequent fixation, paraffin embedding, section, staining and histopathological observation. The experiment results are shown as follows: During the experiment, the weight of rats in the control group continued to increase.

[1] = pharmaceutically acceptable esters (prodrugs of A and B series), hsDHODH enzyme test, read-out: IC50

hsDHODH, sequence (Q02127 whole entry): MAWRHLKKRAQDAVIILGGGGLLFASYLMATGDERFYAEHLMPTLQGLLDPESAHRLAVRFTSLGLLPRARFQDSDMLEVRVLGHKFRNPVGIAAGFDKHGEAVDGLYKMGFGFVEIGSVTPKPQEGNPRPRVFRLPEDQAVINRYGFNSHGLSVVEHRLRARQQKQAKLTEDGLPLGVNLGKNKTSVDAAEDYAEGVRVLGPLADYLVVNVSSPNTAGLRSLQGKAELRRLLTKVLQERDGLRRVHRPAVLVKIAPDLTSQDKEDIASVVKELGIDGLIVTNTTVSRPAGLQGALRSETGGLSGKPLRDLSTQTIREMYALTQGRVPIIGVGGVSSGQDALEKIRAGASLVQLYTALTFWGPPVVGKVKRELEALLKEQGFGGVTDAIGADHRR

| SMILES | gain of body weight (CIA model rats; compared with model group) | IC50 (hsDHODH; [1]) [µM] | also measured |
| --- | --- | --- | --- |
| CN(/N=C/c1ccccc1C(=O)O)c1nc(-c2ccccc2Cl)cs1 [Compound 1, (E)-4-(2-chlorophenyl)-2-[1-methyl-2-(2-carboxybenzylidene)hydrazino]thiazole] | improve the condition of the rats and the slow gain of body weight |  | IC50 (hsDHODH; purified DHODH 10 nM, DHO 500 μM, CoQ 100 μM, DCIP 120 μM, read-out: IC50 (μM) hsDHODH): 0.0097 ± 0.0001 µM; degree of joint swelling (CIA model rats; 5 mg/kg intraperitoneal, compared with model group): significantly reduced; degree of joint swelling (CIA model rats; 30 mg/kg intraperitoneal, compared with model group): more significantly reduced; histopathological features of joint tissue (HE staining) (CIA model rats; joints taken on day 28, FIG. 3): significantly alleviated; synovial hyperplasia and inflammatory cell infiltration (CIA model rats; tissue sections, compared with model group): greatly improved |
| CN(Cc1cnc2nc(N)nc(N)c2n1)c1ccc(C(=O)N[C@@H](CCC(=O)O)C(=O)O)cc1 [Methotrexate, reference compound] | improve the condition of the rats and the slow gain of body weight |  | degree of joint swelling (CIA model rats; 0.3 mg/kg intraperitoneal, positive drug): significantly reduce the degree of joint swelling |
| CCCCCOC(=O)c1ccccc1/C=N/N(C)c1nc(-c2ccccc2Cl)cs1 [Compound B6, (E)-4-(2-chlorophenyl)-2-[1-methyl-2-(2-pentyloxyformylbenzylidene)hydrazino]thiazole] |  | > 50 |  |
| CCOC(=O)c1ccccc1/C=N/N(C)c1nc(-c2ccccc2Cl)cs1 [Compound B1, (E)-4-(2-chlorophenyl)-2-[1-methyl-2-(2-ethoxyformylbenzylidene)hydrazino]thiazole] |  | 2.79 ± 0.0465 |  |
| CCCCCCOC(=O)c1ccccc1/C=N/N(C)c1nc(-c2ccccc2Cl)cs1 [Compound B7, (E)-4-(2-chlorophenyl)-2-[1-methyl-2-(2-hexyloxyformylbenzylidene)hydrazino]thiazole] |  | > 50 |  |
| CCCCCOC(=O)c1ccccc1/C=N/Nc1nc(-c2ccccc2Cl)cs1 [Compound A6, (E)-4-(2-chlorophenyl)-2-(2-pentyloxyformylbenzylidenehydrazino)thiazole] |  | > 50 |  |

Reference: patent publication US10919869B2, “Thiazole derivative and applications” (EAST CHINA UNIVERSITY OF SCIENCE AND TECHNOLOGY, priority 2016, dated 2021)
